# The source made the active and inactive calls.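 How the source made its calls: active means compounds giving half or more protection of infected cells from virus-caused growth loss, again on retest; inactive means the rest.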
# System: CEM cells HIV-1 protection, formazan growth assay
# Test: NCI AIDS Antiviral Assay
# Settings: for IC50: measured here: growth of uninfected CEM cells
# Method in brief: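 Human CEM cells, uninfected and HIV-1-infected, received five drug concentrations, and growth was read by soluble formazan assay. Compounds giving at least 50% protection were retested; reproducible 100% protection defined confirmed active.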
SMILES,EC50 [µM],IC50 [µM],outcome
CCOC(=O)C(C#N)(Cc1ccc2ccccc2n1)Cc1ccc2ccccc2n1,> 200,> 200,
Cn1c(=O)nc2n(-c3cccc(Cl)c3)c3ccccc3nc-2c1=O,,,inactive
O=c1[nH]c2nn(-c3ccccc3)cc2c(=O)n1O,> 200,3.31,
C[C@]1(CI)OC(=O)N2CCC[C@H]21,> 891,> 891,
CC(NC(=O)C(N)CC(=O)O)NC(=O)N1CCOCC1 (stereo not given),> 200,> 200,
Cc1c(-c2ccccc2)sc(N)c1C#N,,,inactive
C[C@]12CCC(=O)C=C1CC[C@@H]1C2CC[C@]2(C)c3nn(-c4ccccc4)nc3CC12 (stereo not given in full),,,inactive
Nc1ccc2cc(S(=O)(=O)O)c(N=Nc3ccc(-c4ccc(N=Nc5c(S(=O)(=O)O)cc6cc(S(=O)(=O)O)c(N=Nc7cccc([N+](=O)[O-])c7)c(N)c6c5O)cc4)cc3)c(O)c2c1,,,active
CCN(CC)c1cc2oc(=O)cc(C)c2cc1NC(=O)c1cc(N)cc(N)c1,> 100,19.5,
O=C1CCCCCCCCCCC1CN1CCOCC1 (stereo not given),> 72.4,> 72.4,
COC(=O)[C@@]1(C)CCC[C@]2(C)C3(O)C(C)C(=O)O[C@H](c4ccoc4)C3C(OC(C)=O)C21O (stereo not given in full),> 200,> 200,
O=S(=O)(O)CCCO,> 200,> 200,
Cc1cn(C2CC(Sc3ccccc3)C(CO)O2)c(=O)[nH]c1=O (stereo not given),> 200,> 200,
c1ccc(CSc2nc3ccccc3nc2-c2cccs2)cc1,> 21.4,> 21.4,
O=C(NNC(=O)/C(=C/c1cccc([N+](=O)[O-])c1)NC(=O)c1ccccc1)Nc1ccc(Cl)cc1,> 38.9,24.5,
N#Cc1cccc(/C=C2\Cc3ccccc3C2=O)c1,> 5.89,> 5.89,
Brc1c2c(c(Br)c3nsnc13)N=S=N2,,,inactive
Cc1cccc(C)c1NC(=O)CN(CC(C)C)CC(O)COc1ccccc1 (stereo not given),> 200,27.5,
COc1ccc2c(c1)[n+](=O)c(C(=O)CC(=O)C(=O)Nc1cccc(C)c1C)c(C)n2[O-],> 117,> 117,
O=C1O/C(=C(/Cl)c2c3ccccc3cc3ccccc23)c2ccccc21,> 200,10.2,
N#Cc1nc(-c2ccsc2)oc1N,> 200,> 200,
Oc1c(O)c(Cc2ccccc2)c(Cc2ccccc2)c(Cc2ccccc2)c1Cc1ccccc1,> 200,32.4,

SMILES,EC50 [µM],IC50 [µM],outcome
Cc1cc(N(CCC#N)CCC#N)ccc1/C(N=Nc1ccc([N+](=O)[O-])cc1)=N\NC(=O)c1ccccc1,> 200,16.2,
O=C(O)c1nc2ccccc2nc1NCc1ccc(F)cc1,> 200,56.2,
C/C(=N\N=C(N)N)C(CN(C)C)C(c1ccccc1)c1c(O)c2ccccc2oc1=O (stereo not given),> 40.7,17.4,
COC(=O)[C@@H]1C[C@]2(Br)c3ccccc3N(S(=O)(=O)c3ccccc3)[C@@H]2N1C(=O)OC,> 200,138,
Cc1ccc(S(=O)(=O)N2CCSCCSCCSCCN(S(=O)(=O)c3ccc(C)cc3)CC2)cc1,> 12.6,> 12.6,
CC1OC(OC2C(CO)OC(O[C@H]3CC[C@@]4(C)C(=CC[C@H]5[C@@H]6C[C@@H]7O[C@](O)(CC[C@H](CO)COC8OC(CO)C(O)C(O)C8O)[C@@H](C)[C@@H]7[C@@]6(C)CC[C@@H]54)C3)C(OC3OC(C)C(O)C(O)C3O)C2O)C(O)C(O)C1O (stereo not given in full),> 200,> 200,
c1cncc(CN2CCCCC2)c1,,,inactive
COc1ccc(NC(=S)Nc2cccc(C)n2)cc1,> 200,> 200,
c1ccc(P(CC[As](c2ccccc2)c2ccccc2)CC[As](c2ccccc2)c2ccccc2)cc1,> 20.9,2.14,
O=C(O)c1cnc2c(ccc3[nH]cccc32)c1=O,> 75.9,> 75.9,
O=C(O)c1ccc(C(=O)O)c(C(=O)c2cc(C(=O)O)ccc2C(=O)O)c1,> 162,61.7,
CCc1cc2c(Nc3ccccc3)c3c(nc2s1)CCCC3,> 85.1,> 85.1,
O=[N+]([O-])c1cc2ccc(N(CCO)CCO)nc2nc1N(CCO)CCO,> 200,> 200,
COc1ccc(/C=C2\Sc3scc(-c4ccc([N+](=O)[O-])cc4)[n+]3C2=O)cc1OC,> 200,15.8,
N#C/C(=C\n1c(=S)[nH]c2ccc([N+](=O)[O-])cc21)c1nc2ccccc2s1,> 200,102,
c1nc2c([nH]1)CCNC2c1ccc2c(c1)OCO2 (stereo not given),,,inactive
COc1ccc(C(O)/C(=N\NC(N)=S)c2nc3ccc([N+](=O)[O-])cc3[nH]c2=O)cc1OC (stereo not given),> 288,> 288,
COc1cc(OC)c(/C=N\Nc2nc3ccccc3c(=O)n2-c2ccccc2)c(OC)c1,> 50.1,37.2,
O=C(/C=C/c1ccc(OCCSCCCCCCCCCCSCCOc2ccc(/C=C/C(=O)c3ccc(Cl)cc3)cc2)cc1)c1ccc(Cl)cc1,> 12.9,12,
[N-]=[N+]=NC1CC(n2cc(C(OCC(F)(F)F)OCC(F)(F)F)c(=O)[nH]c2=O)OC1CO (stereo not given),25.1,107,
CN1C(=O)/C(=C2\SC(=O)N(Cc3nc4ccccc4[nH]3)C2=O)c2cc(Br)ccc21,> 200,12.9,
CCOC(=O)c1c(N2CCCC2)nsc1Nc1ccccc1,> 200,145,

SMILES,EC50 [µM],IC50 [µM],outcome
Fc1ccc(F)c(C=NC23CC4CC(CC(C4)C2)C3)c1,> 200,> 200,
C[N+]1(Cc2ccc([N+](=O)[O-])cc2)CCC(CCCCCCCC2CC[N+](C)(Cc3ccc([N+](=O)[O-])cc3)CC2)CC1 (stereo not given),> 200,14.5,
Nc1ncnc2c1ncn2[C@H]1C(CO)[C@@H](CO)C12SCCCS2 (stereo not given in full),> 191,> 191,
N=C1N(c2ccccc2)C(=O)CC(=O)N1c1ccccc1,> 200,53.7,
COC(=O)c1ncc2c(=O)[nH]c3ccccc3c2c1C(=O)OC,> 16.6,> 16.6,
NCCCc1c(-c2ccccc2)nc(N)[nH]c1=O,> 200,> 200,
COc1cc(NCC(C#N)C#N)ccc1N=Nc1ccc([N+](=O)[O-])cc1,> 38.9,> 38.9,
CC(=O)N1C(=O)/C(=C\C(=O)c2ccc([N+](=O)[O-])cc2)c2ccccc21,> 200,2.82,
CCOc1cccc2sc(N)nc12,,,inactive
COc1ccc(C(=O)Nc2sc(SC)nc2C(N)=O)cc1,> 200,> 200,
O=C(NCCSSCCNC(=O)/C(Cc1ccc(O)c(Br)c1)=N/O)/C(Cc1ccc(O)c(Br)c1)=N/O,,,inactive
O=S(=O)(c1cc(Cl)ccc1Cl)N1CCN(S(=O)(=O)c2cc(Cl)ccc2Cl)CC1,> 200,> 200,
CC1c2c(cc(=O)n(C)c2O)C(=O)N1Cc1ccccc1 (stereo not given),> 347,257,
CCOC(=O)Nc1ccc2nc(-c3cscn3)[nH]c2c1,> 457,1.66,
O=C1C(=O)N(c2cc(Cl)ccc2Cl)C(=O)C(=O)C1c1nc2ccccc2o1,> 24.5,> 24.5,
CC(C)C(=O)/C=C/c1ccc(Cl)cc1,,,inactive
C=CCNc1ncnc2sc(SC)nc12,> 200,107,
Nc1ccc(S(=O)(=O)Nc2ccccc2)cc1,> 200,> 200,
CCOP(=O)(OCC)/C(C#N)=C/c1ccccc1,> 676,> 676,
Nc1c2c([nH]c(=O)c1N)CCC2,> 200,> 200,
N/C(=N\C(=S)N1CCCCC1)N1CCCCC1,,,inactive
COc1ccc2c(c1)O[C@]1(O)c3cc4c(cc3O[C@@H]1C2)OCO4,> 12,> 12,

SMILES,EC50 [µM],IC50 [µM],outcome
O=C1C(=O)C2(CC1S(=O)(=O)c1ccccc1)c1ccccc1-c1ccccc12 (stereo not given),,,inactive
CCS(=O)(=O)c1c2cc(OC)ccc2nc2ccc(OC)cc12,> 200,> 200,
Cc1c(C)c2ccc3occc(=O)c3c2oc1=O,> 195,95.5,
[Ni+2].[O-]/C(=N\N=C/c1cccc(C(F)(F)F)c1)c1ccncc1.[O-]/C(=N\N=C\c1cccc(C(F)(F)F)c1)c1ccncc1,> 100,15.8,
CC(C)(c1ccc(OC#N)cc1)c1ccc(OC#N)cc1,> 67.6,> 67.6,
COC1/C=C/OC2(C)Oc3c(C)c(O)c4c(O)c(c(/C=N/N5CCOCC5)c(O)c4c3C2=O)NC(=O)C(C)=C/C=C\C(C)C(O)C(C)C(O)C(C)C(O)C1C (stereo not given),> 126,72.4,
COC(=O)c1ccc(NCc2c(O)ccc(O)c2Br)cc1Cl,> 14.8,6.46,
O=C(O)c1c(O)ccc(N=Nc2ccc(CCc3ccc(N=Nc4ccc(O)c(C(=O)O)c4O)cc3S(=O)(=O)O)c(S(=O)(=O)O)c2)c1O,> 162,97.7,
C=CCC1C2CCC(O[Si](C(C)C)(C(C)C)C(C)C)(C(C(=O)OC)C2)C1O (stereo not given),> 200,91.2,
CC(CCC(=O)O)C1CCC2C3C(O)CC4CC(O)CCC4(C)C3CC(O)C12C (stereo not given) (tested in a mixture with another compound),> 200,> 200,
Nc1nc(Cl)c(Cl)nc1C(=O)O,> 200,117,
CC1=NC2c3c(-c4ccc(Cl)cc4)cn(-c4ccc(C)cc4)c3N=CN2N1 (stereo not given),> 100,> 100,
C=C1C2CCC3(CCC4C5(C)CCCC4(C=NC5)C3C2)C1O (stereo not given),,,inactive
CCOC(=O)CC(=O)CSc1c(-c2ccccc2)c(=O)n(-c2ccccc2)c(=S)n1-c1ccccc1,> 200,72.4,
Cn1c(=O)nc2n(-c3ccc(Cl)cc3)c3cc(Cl)ccc3nc-2c1=O,,,inactive
CC(C)(C)c1onc2c1C(=O)c1ccccc1-2,> 200,117,
O=[N+]([O-])c1ccc(C2=CSC3=NCCN23)cc1,,,inactive
CC(O)C1=CCC2c3[nH]c4ccccc4c3CCN2C1 (stereo not given),> 23.4,> 23.4,
O=C(Cn1c2ccc(Br)cc2c2nc3ccccc3nc21)NNC(=O)NC1CCCCC1,> 200,182,
